Columns and labels:
[1] = Toxicity in iv dosed ICR mouse assessed as lethality; conditions: in vivo
in vivo = conditions: ICR, mouse, iv

Compound | LD50 [1] | selectivity ratio (in vivo)
CN1CCC[C@H]1c1cccnc1.O=C(O)C(O)C(O)C(=O)O.O=C(O)C(O)C(O)C(=O)O | 0.38 mg/kg | 7.24
CN1CCC[C@@H]1c1cccnc1.O=C(O)C(O)C(O)C(=O)O.O=C(O)C(O)C(O)C(=O)O | 2.75 mg/kg | –
